Read-outs that look alike come from different tables or passages of the source.
Tests used:
[1] = Cytotoxicity in HeLa cells without addition of OC43 virus (in parallel); details: human, HeLa cells, without OC43 virus
[2] = in vitro; details: human
[3] = target: SARS-Cov-2 3CLpro (Severe acute respiratory syndrome coronavirus 2, UniProt P0DTD1); test: biochemical; details: Table A, class symbols, read-out: SARS-Cov-2 (IC50)
[4] = system: SARS-CoV-2 B.1.1.7 lineage; test: microbe, parasite or virus in culture; format: cell-based; details: Severe acute respiratory syndrome coronavirus 2, Table C, SARS-CoV-2 B.1.1.7 in A549-dual_ACE2_TMPRSS2 cells, read-out: A549-dual_ACE2_TMPRSS2 (EC50)
[5] = system: human beta-coronavirus OC43; test: OC43 Coronavirus Assay in HeLa cells (antiviral, cytopathic effect, cell-titer-glo); format: cell-based; details: Betacoronavirus 1, OC43, HeLa, Table B; OC43 coronavirus in HeLa cells, class symbols; read-out: EC50

SMILES | CC50 at 6 days [1] | CC50 [2] | IC50 [3] | EC50 ([4]; cells given as a bound) | EC50 [5] | EC50 ([4]; class symbols)
CN(C(=O)[C@H](CC1CC1)NC(=O)C(F)(F)F)[C@@H](CC1CC1)C(=O)N1C[C@]2(C[C@H]1C#N)C(=O)Nc1ccccc1S2(=O)=O [Compound 82] | > 10000 nM | > 1000 nM | 20 to 200 nM | > 1000 nM | 100 to 1000 nM | 
C[C@@H](NC(=O)C(F)(F)F)C(=O)N(C)[C@@H](CC1CC1)C(=O)N1C[C@@]2(C[C@H]1C#N)Oc1cc(F)cc(F)c1NC2=O [Compound 83] | > 10000 nM | > 1000 nM | 20 to 200 nM |  | 100 to 1000 nM | < 100 nM
C[C@H](NC(=O)C(F)(F)F)C(=O)N(C)[C@@H](CC1CC1)C(=O)N1C[C@@]2(C[C@H]1C#N)Oc1cccnc1NC2=O [Compound 84] | > 10000 nM | > 1000 nM | < 20 nM |  | 1000 to 10000 nM | < 100 nM
CN(C(=O)[C@H](CC(F)(F)F)NC(=O)C(F)(F)F)[C@@H](CC1CC1)C(=O)N1C[C@@]2(C[C@H]1C#N)Oc1cc(F)cc(F)c1NC2=O [Compound 85] | > 10000 nM | > 1000 nM | < 20 nM |  | 100 to 1000 nM | < 100 nM
CN(C(=O)[C@H](CC(F)F)NC(=O)C(F)(F)F)[C@@H](CC1CC1)C(=O)N1C[C@@]2(C[C@H]1C#N)Oc1cc(F)cc(F)c1NC2=O [Compound 86] | > 10000 nM | > 1000 nM | < 20 nM |  | 100 to 1000 nM | < 100 nM
CN(C(=O)[C@H](CC1CCC1)NC(=O)C(F)(F)F)[C@@H](CC1CC1)C(=O)N1C[C@@]2(C[C@H]1C#N)Oc1cc(F)cc(F)c1NC2=O [Compound 87] | > 10000 nM | > 1000 nM | < 20 nM |  | 100 to 1000 nM | < 100 nM
CC[C@H](NC(=O)C(F)(F)F)C(=O)N(C)[C@@H](CC1CC1)C(=O)N1C[C@@]2(C[C@H]1C#N)Oc1cc(F)cc(F)c1NC2=O [Compound 88] | > 10000 nM | > 1000 nM | < 20 nM |  | 100 to 1000 nM | < 100 nM
CN(C(=O)[C@H](CC(C)(C)C)NC(=O)C(F)(F)F)[C@@H](CC1CC1)C(=O)N1C[C@@]2(C[C@H]1C#N)Oc1cc(F)cc(F)c1NC2=O [Compound 89] | > 10000 nM | > 1000 nM | < 20 nM |  | < 100 nM | < 100 nM
CN(C(=O)[C@@H](Cc1ccc(F)cc1)NC(=O)C(F)(F)F)[C@@H](CC1CC1)C(=O)N1C[C@@]2(C[C@H]1C#N)Oc1cc(F)cc(F)c1NC2=O [Compound 90] | > 10000 nM | > 1000 nM | < 20 nM |  | < 100 nM | < 100 nM
CN(C(=O)C(C)(C)NC(=O)C(F)(F)F)[C@@H](CC1CC1)C(=O)N1C[C@@]2(C[C@H]1C#N)Oc1cc(F)cc(F)c1NC2=O [Compound 92] | > 10000 nM | > 1000 nM | 200 to 2000 nM |  | < 100 nM | < 100 nM
CN1C(=O)[C@]2(C[C@@H](C#N)N(C(=O)[C@H](CC3CC3)N(C)C(=O)[C@H](CC3CC3)NC(=O)C(F)(F)F)C2)Oc2cc(F)cc(F)c21 [Compound 93] | > 10000 nM | > 1000 nM | < 20 nM |  | < 100 nM | < 100 nM
C[C@H](NC(=O)C(F)(F)C(F)(F)F)C(=O)N(C)[C@@H](CC1CC1)C(=O)N1C[C@@]2(C[C@H]1C#N)Oc1cc(F)cc(F)c1NC2=O [Compound 95] | > 10000 nM | > 1000 nM | < 20 nM |  | 1000 to 10000 nM | < 100 nM
CN(C(=O)c1cc2c(F)cc(F)c(F)c2[nH]1)[C@@H](CC1CC1)C(=O)N1C[C@@]2(C[C@H]1C#N)Oc1cccnc1NC2=O [Compound 96] | > 10000 nM | > 1000 nM | < 20 nM |  | 1000 to 10000 nM | 100 to 1000 nM
CN(C(=O)c1cc2c(F)cc(F)c(F)c2[nH]1)[C@@H](CC1CC1)C(=O)N1C[C@@]2(C[C@H]1C#N)Oc1cccc(F)c1NC2=O [Compound 97] | > 10000 nM | > 1000 nM | < 20 nM |  | < 100 nM | 100 to 1000 nM
C[C@H](NC(=O)C(F)(F)F)C(=O)N(C)[C@@H](CC1CC1)C(=O)N1C[C@@]2(C[C@H]1C#N)Oc1cccc(F)c1NC2=O [Compound 98] | > 10000 nM | > 1000 nM | < 20 nM |  | 100 to 1000 nM | < 100 nM
C[C@H](NC(=O)C(F)(F)F)C(=O)N(C)[C@@H](CC1CC1)C(=O)N1C[C@@]2(C[C@H]1C#N)Oc1c(cccc1C1CC1)NC2=O [Compound 99] | > 10000 nM | > 1000 nM | < 20 nM |  | 100 to 1000 nM | < 100 nM
